Measurements: patent US20140128352A1, “COMPOUNDS AND METHODS FOR MODULATING MITOCHONDRIAL METABOLISM AND REACTIVE OXYGEN SPECIES PRODUCTION” (Buck Institute for Research on Aging, priority 2012, published 2014)
“Also recorded” adds a separate entry of the source.

Test system: mitochondrial respiration
Assay: Mitochondrial respiration, Seahorse XF24
Assay type: biochemical, rat
Details: complex I, complex II or glycerol phosphate substrates; states 2, 3, 4
Description: Measurements of ΔΨm described in the previous examples were made under “resting” conditions in which substrates were present but ΔΨm was not coupled to ATP (energy) production by mitochondria. To test the effect of candidate compounds on mitochondrial bioenergetics under energy producing conditions, respiratory coupling parameters were measured in isolated mitochondria in microplate format using a Seahorse XF 24 analyzer (Rogers, G. et al. (2011) High Throughput Microplate Respiratory Measurements Using Minimal Quantities of Isolated Mitochondria. PLoS One. 6(7): e21746). […] ATP synthesis was terminated by injection of oligomycin (0.5 μg/mL) and leak-dependent respiration was measured (state 4o). Finally, the complex III inhibitors antimycin A (2.5 uM) and myxothiazol (2 μM) were injected to terminate respiration. Respiratory profiles were evaluated for signs of inhibition (decreased states 2, 3, or 4o) or uncoupling (increased states 2 or 4o) by candidate compounds. Seahorse XF experiments were performed in a mannitol-sucrose based buffer as described in Rogers et al. 2011. For respiration experiments driven by glycerol phosphate, this buffer was supplemented with CaCl2 to a final free concentration of 250 nM.

| Compound | effect on mitochondrial respiration |
| --- | --- |
| O=[N+]([O-])c1ccc(Oc2ccc(S(=O)(=O)NC3CCCCC3)cc2)cc1 [Compound 4] | did not significantly inhibit or show signs of uncoupling respiration under any conditions except at 80 uM; also recorded: does not inhibit forward electron flow through CI |
| O=C(O)C1CCCCC1C(=O)NC1CCCCC1 (stereo not shown) [Compound 19] | inhibits ADP-stimulated respiration with complex I substrates; also recorded: no signs of uncoupling but did reveal a progressive inhibition of state 3 respiration (ATP producing) only with CI substrates |
| CC1=CC(C)(C)N(Cc2ccc([N+](=O)[O-])cc2)c2ccccc21 [Compound 37] | did not uncouple state 2 respiration; also recorded: does not show signs of uncoupling state 2 respiration at high concentrations |
| Cc1ccc(C)c(CN(CCCN(C)C)CCCN(C)C)c1 [Compound 32] | increases ADP-stimulated respiration specifically with complex I substrates; also recorded: significantly increased state 3 respiration specifically with CI substrates |

Test system: mitochondrial membrane potential (ΔΨm)
Assay: Retest ΔΨm assays (different substrates, with and without nigericin)
Assay type: biochemical, rat
Details: various substrates
Description: The five core ROS assays and single ΔΨm assay were carried out as in the initial high-throughput screen. In addition, several assays were included to help validate the specificity of the compounds for a given site of production. […] The use of different substrates was designed to reveal compounds that disrupt mitochondrial function in a substrate specific manner. […] Most frequently, these changes involved the use of different substrates to supply electrons from an alternative entry point in the chain. If a site of ROS production is being targeted selectively by a compound, then in many cases the supply of electrons should not influence the effectiveness of this compound at suppressing ROS production. […] Candidate compounds that remained site-selective following robotics assisted retesting were subsequently tested for effects on ROS production and ΔΨm with a Varian Cary Eclipse fluorimeter (excitation 550 nm, emission at 590 nm). This experimental format allows kinetic measurements of ROS production and ΔΨm with more accurate temperature control, sample stirring, and background correction. […] Conditions were generally as described for the various microplate assays with the following exceptions: HRP was increased to 5 units/mL, Amplex UltraRed was increased to 50 μM, temperature was always 37° C., samples were continuously stirred, and baseline rates of fluorescence change in the absence of substrate were acquired prior to their addition. Example protocols for cuvette based measurement of site IQ and site IIIQo ROS production are described in Affourtit et al., 2012. […] Biochim. Biophys. Acta. 1777(5): 397-403. An additional advantage of the kinetic cuvette based assays was the ability to perform inline additions to monitor the relative effect of a test compound against multiple conditions in the same cuvette. Therefore, the selectivity of a compound for one site of ROS production can be monitored by adding substrates and select known inhibitors in defined sequences to alternately provide and trap electrons at various sites in the chain. […]

| Compound | effect on ΔΨm |
| --- | --- |
| COc1ccc(Cl)cc1N(Cc1ccccc1)Cc1ccccc1 [Compound 34] | a consistent increase in ΔΨm was observed independent of both substrate and ΔpH at 8 μM; also recorded: increases ΔΨm at 8 μM but collapses ΔΨm above this concentration |
| O=C(O)CCC(=O)Nc1ccc(-c2nc3cc4ccccc4cc3[nH]2)cc1 [Compound 61] | increased off-target effect on ΔΨm in the absence of nigericin |
| Cc1ccc(C)c(CN(CCCN(C)C)CCCN(C)C)c1 [Compound 32] | without any significant effects on membrane potential |
